The text below walks through data of patent US8435978B2, “Substituted sulfonamide compounds” (Gruenenthal GmbH, priority 2006, dated 2013).

The target in one assay is T1, B1R receptor of the rat (Rattus norvegicus, UniProt P97583).
T1 construct: host or cells: CHO K1 cells (Chinese hamster ovary), stably transfected
T1 sequence (P97583 1-337): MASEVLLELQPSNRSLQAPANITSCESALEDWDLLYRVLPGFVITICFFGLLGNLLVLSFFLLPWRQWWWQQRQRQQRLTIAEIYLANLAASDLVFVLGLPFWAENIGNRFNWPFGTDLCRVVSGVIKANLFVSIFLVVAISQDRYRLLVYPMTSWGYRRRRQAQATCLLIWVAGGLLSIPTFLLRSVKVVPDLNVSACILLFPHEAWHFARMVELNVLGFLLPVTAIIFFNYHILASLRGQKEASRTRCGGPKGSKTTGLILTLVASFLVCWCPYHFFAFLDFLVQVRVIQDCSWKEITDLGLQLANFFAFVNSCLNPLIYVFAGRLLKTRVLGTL
Briefly: Functional study on the bradykinin receptor 1 (B1R), FLIPR Ca2+ assay, rB1R cells. The format is cell-based. The conditions noted are these: CHO-K1, test substance 10 μM, agonist Des-Arg9-bradykinin 100 nM, % inhibition compared with the maximum achievable inhibition, read-out: B1R Antagonism, rat [10 μM] % Inhibition. Here is the method:
(§1) The agonistic or antagonistic action of substances can be quantified on the bradykinin receptor 1 (B1R) of the species human and rat with ectopically expressing cell lines (CHO K1 cells) and with the aid of a Ca^2+-sensitive dye (Fluo-4) using a fluorescent imaging plate reader (FLIPR). The indication in % activation is based on the Ca^2+ signal after addition of Lys-Des-Arg^9-bradykinin (0.5 nM) or Des-Arg^9-bradykinin (100 nM). Antagonists result in a suppression of the Ca^2+ influx following administration of the agonist. The % inhibition in comparison with the maximum achievable inhibition is indicated.
(§2) The agonistic or antagonistic action of substances can be determined on the bradykinin receptor 1 (B1R) of the species human and rat using the following assay. According to this assay, the Ca^2+ influx through the channel is quantified with the aid of a Ca^2+-sensitive dye (type Fluo-4, Molecular Probes Europe BV, Leiden, Netherlands) using a Fluorescent Imaging Plate Reader (FLIPR, Molecular Devices, Sunnyvale, USA).
(§3) Chinese hamster ovary cells (CHO K1 cells) which have been stably transfected with the human B1R gene (hB1R cells, Euroscreen s.a., Gosselies, Belgium) or with the B1R gene of the rat (rB1R cells, Axxam, Milan, Italy) are used. For functional studies, the cells are plated out on black 96-well plates having a clear base (BD Biosciences, Heidelberg, Germany) in a density of 20,000-25,000 cells/well. The cells are incubated overnight at 37° C. and with 5% CO2 in culture medium (hB1R cells: Nutrient Mixture Ham's F12, Gibco Invitrogen GmbH, Karlsruhe, Germany; rB1R cells: D-MEM/F12, Gibco Invitrogen GmbH, Karlsruhe, Germany), with 10 vol. % FBS (fetal bovine serum, Gibco Invitrogen GmbH, Karlsruhe, Germany). On the following day, the cells are loaded for 60 minutes at 37° C. with 2.13 μM Fluo-4 (Molecular Probes Europe BV, Leiden, Netherlands) in HBSS buffer (Hank's buffered saline solution, Gibco Invitrogen GmbH, Karlsruhe, Germany) […] (Sigma-Aldrich, Taufkirchen, Germany) and 10 mM HEPES (Sigma-Aldrich, Taufkirchen, Germany). The plates are then washed twice with HBSS buffer, and HBSS buffer additionally containing 0.1% BSA (bovine serum albumin; Sigma-Aldrich, Taufkirchen, Germany), 5.6 mM glucose and 0.05% gelatin (Merck KGaA, Darmstadt, Germany) is added to the plates. After incubation for a further 20 minutes at room temperature, the plates are inserted into the FLIPR for Ca^2+ measurement. The Ca^2+-dependent fluorescence is measured before and after the addition of substances (λex=488 nm, λem=540 nm). Quantification is carried out by measuring the highest fluorescence intensity (FC, fluorescence counts) over time.
(§4) The FLIPR protocol consists of 2 substance additions. Test substances (10 μM) are first pipetted onto the cells and the Ca^2+ influx is compared with the control (hB1R: Lys-Des-Arg^9-bradykinin 0.5 nM; rB1R: Des-Arg^9-bradykinin 100 nM). This gives the activation in %, based on the Ca^2+ signal after addition of Lys-Des-Arg^9-bradykinin (0.5 nM) or Des-Arg^9-bradykinin (100 nM).
(§5) After 10 minutes' incubation, 0.5 nM Lys-Des-Arg^9-bradykinin (hB1R) or 100 nM Des-Arg^9-bradykinin (rB1R) are applied, and the influx of Ca^2+ is likewise determined. Antagonists lead to suppression of the Ca^2+ influx. The % inhibition compared with the maximum achievable inhibition is calculated.

Another assay addresses T2, human B1R receptor (Homo sapiens, UniProt P46663).
T2 construct: host or cells: CHO K1 cells (Chinese hamster ovary), stably transfected
T2 sequence (P46663 1-353): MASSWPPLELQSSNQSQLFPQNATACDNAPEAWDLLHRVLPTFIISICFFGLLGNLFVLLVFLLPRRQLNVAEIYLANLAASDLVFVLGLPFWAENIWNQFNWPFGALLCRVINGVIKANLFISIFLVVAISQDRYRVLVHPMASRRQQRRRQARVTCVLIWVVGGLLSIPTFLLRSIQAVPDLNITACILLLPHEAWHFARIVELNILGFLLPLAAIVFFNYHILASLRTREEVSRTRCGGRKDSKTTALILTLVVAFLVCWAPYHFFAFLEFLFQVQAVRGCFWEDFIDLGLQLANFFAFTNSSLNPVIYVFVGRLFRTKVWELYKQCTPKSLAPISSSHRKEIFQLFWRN
As to the kind of experiment: Functional study on the bradykinin receptor 1 (B1R), FLIPR Ca2+ assay, hB1R cells. The format is cell-based. The following applies: CHO-K1, test substance 10 μM, agonist Lys-Des-Arg9-bradykinin 0.5 nM, % inhibition compared with the maximum achievable inhibition, read-out: B1R Antagonism, human [10 μM] % Inhibition. Here is the method: as §1, §2, §3, §4, §5

Where a name gives a salt, the structure may show the parent alone.

Broadly, the inhibition is the relative decrease from the control value, in per cent. With `COc1cc(C)c(S(=O)(=O)N2CCCCC2COCC(=O)N(C2CC2)C2CCN(Cc3ccccc3)CC2)c(C)c1` (stereo not shown) [Example 342, N-(1-benzylpiperidin-4-yl)-N-cyclopropyl-2-((1-(4-methoxy-2,6-dimethylphenylsulfonyl)piperidin-2-yl)methoxy)acetamide], the inhibition at 10 µM on B1R receptor of the rat was determined as 100%; at human B1R receptor, 104%.

As for `COc1cc(C)c(S(=O)(=O)N2CCCCC2COCC(=O)NCCN2CCCC2)c(C)c1` (stereo not shown) [Example 343, 2-((1-(4-methoxy-2,6-dimethylphenylsulfonyl)piperidin-2-yl)methoxy)-N-(2-(pyrrolidin-1-yl)ethyl)acetamide], the results for the inhibition at 10 µM on B1R receptor of the rat and at human B1R receptor were 100% and 80%, respectively.

Take `COc1cc(C)c(S(=O)(=O)N2CCCC2COCC(=O)N2CCN(c3ncccc3C#N)CC2)c(C)c1` (stereo not shown) [Example 312, 2-(4-(2-((1-(4-methoxy-2,6-dimethylphenylsulfonyl)pyrrolidin-2-yl)methoxy)acetyl)piperazin-1-yl)nicotinonitrile]: the inhibition at 10 µM stood at 98.7% on B1R receptor of the rat and 98.5% at human B1R receptor.

Regarding `CC(C)N(Cc1ccc(N(C)C)cc1)C(=O)COCC1CCCCN1S(=O)(=O)c1c(Cl)cccc1Cl` (stereo not shown) [Example 530, 2-((1-(2,6-dichlorophenylsulfonyl)piperidin-2-yl)methoxy)-N-(4-(dimethylamino)benzyl)-N-isopropylacetamide], the results for the inhibition at 10 µM at B1R receptor of the rat and at human B1R receptor were 101% and 93.1%, respectively.

As to `CN1CCC(N2CCN(C(=O)COCC3CCc4ccccc4N3S(=O)(=O)c3ccc4ccccc4c3)CC2)CC1` (stereo not shown) [Example 203, 1-(4-(1-methylpiperidin-4-yl)piperazin-1-yl)-2-((1-(naphthalen-2-ylsulfonyl)-1,2,3,4-tetrahydroquinolin-2-yl)methoxy)ethanone], the inhibition at 10 µM on B1R receptor of the rat was found to be 98.8%; on human B1R receptor it was 103%.

Regarding `COc1ccc(S(=O)(=O)N2CCCCC2COCC(=O)N2CCC(CCN3CCCCC3)CC2)cc1` (stereo not shown) [Example 52, 2-((1-(4-methoxyphenylsulfonyl)piperidin-2-yl)methoxy)-1-(4-(2-(piperidin-1-yl)-ethyl)piperidin-1-yl)ethanone], the inhibition at 10 µM turned out to be 92.8% at B1R receptor of the rat and 65% at human B1R receptor.

Take `O=C(COCC1CCCN1S(=O)(=O)c1c(Cl)cccc1Cl)N1CCN(CCc2ccccc2)CC1` (stereo not shown) [Example 326, 2-((1-(2,6-dichlorophenylsulfonyl)pyrrolidin-2-yl)methoxy)-1-(4-phenethylpiperazin-1-yl)ethanone]: the results for the inhibition at 10 µM at B1R receptor of the rat and on human B1R receptor were 101% and 104%, respectively.

Regarding `CN1CCC(N2CCN(C(=O)COCC3CCCCN3S(=O)(=O)c3c(Cl)nc4sccn34)CC2)CC1` (stereo not shown) [Example 129, 2-((1-(6-chloroimidazo[2,1-b]thiazol-5-ylsulfonyl)piperidin-2-yl)methoxy)-1-(4-(1-methylpiperidin-4-yl)piperazin-1-yl)ethanone], the inhibition at 10 µM is 31.2% at B1R receptor of the rat and 0.03% on human B1R receptor.

For the compound `COc1cc(C)c(S(=O)(=O)N2CCCCC2COCC(=O)N2CCc3cc(N4CCN(C)CC4)ccc3C2)c(C)c1` (stereo not shown) [Example 215, 2-((1-(4-methoxy-2,6-dimethylphenylsulfonyl)piperidin-2-yl)methoxy)-1-(6-(4-methylpiperazin-1-yl)-3,4-dihydroisoquinolin-2(1H)-yl)ethanone], the inhibition at 10 µM was 101% on B1R receptor of the rat and 99.9% on human B1R receptor.

`COc1cc(C)c(S(=O)(=O)N2CCCCC2COCC(=O)N2CCN(Cc3ccc4nccnc4c3)CC2)c(C)c1` (stereo not shown) [Example 166, 2-((1-(4-methoxy-2,6-dimethylphenylsulfonyl)piperidin-2-yl)methoxy)-1-(4-(quinoxalin-6-ylmethyl)piperazin-1-yl)ethanone]: the inhibition at 10 µM at B1R receptor of the rat worked out at 99.3%; on human B1R receptor it was 99.4%.

Consider `CCN(CC)CCN(CCN(CC)CC)C(=O)COCC1Cc2ccccc2CN1S(=O)(=O)c1ccc(Cl)c(Cl)c1` (stereo not shown) [Example 43, 2-[2-(3,4-dichloro-phenylsulfonyl)-1,2,3,4-tetrahydro-isoquinolin-3-ylmethoxy]-N,N-bis-(2-diethylamino-ethyl)-acetamide], for which the inhibition at 10 µM on B1R receptor of the rat turned out to be 24.2%; at human B1R receptor, 69.9%.

Consider `COc1cc(C)c(S(=O)(=O)N2CCCCC2COCC(=O)NCc2ccccc2N2CCCCC2)c(C)c1` (stereo not shown) [Example 428, 2-((1-(4-methoxy-2,6-dimethylphenylsulfonyl)piperidin-2-yl)methoxy)-N-(2-(piperidin-1-yl)benzyl)acetamide], for which the figures for the inhibition at 10 µM on B1R receptor of the rat and on human B1R receptor were 102% and 23.8%, respectively.

With `O=C(COCC1CCCN1S(=O)(=O)c1c(Cl)cc(Cl)cc1Cl)NCCN1CCCCC1` (stereo not shown) [Example 338, N-(2-(piperidin-1-yl)ethyl)-2-((1-(2,4,6-trichlorophenylsulfonyl)pyrrolidin-2-yl)methoxy)acetamide], the inhibition at 10 µM on B1R receptor of the rat is 92.2%; at human B1R receptor, 92.6%.

Regarding `COc1cccc(N2CCN(C(=O)COCC3CCCCN3S(=O)(=O)c3c(C)cc(OC)cc3C)CC2)c1` (stereo not shown) [Example 288, 2-((1-(4-methoxy-2,6-dimethylphenylsulfonyl)piperidin-2-yl)methoxy)-1-(4-(3-methoxyphenyl)piperazin-1-yl)ethanone], the values for the inhibition at 10 µM at B1R receptor of the rat and at human B1R receptor were 93.3% and 102%, respectively.

Take `CN1CCC(N2CCN(C(=O)COCC3CCCCN3S(=O)(=O)c3ccccc3C(F)(F)F)CC2)CC1` (stereo not shown) [Example 571, 1-(4-(1-methylpiperidin-4-yl)piperazin-1-yl)-2-((1-(2-(trifluoromethyl)phenylsulfonyl)piperidin-2-yl)methoxy)ethanone]: the inhibition at 10 µM stood at 100% on B1R receptor of the rat and 104% on human B1R receptor.

In the case of `COc1cc(C)c(S(=O)(=O)N2CCCCC2COCC(=O)Nc2ccc(CCc3nc4ccccc4n3C)cc2)c(C)c1` (stereo not shown) [Example 417, 2-((1-(4-methoxy-2,6-dimethylphenylsulfonyl)piperidin-2-yl)methoxy)-N-(4-(2-(1-methyl-1H-benzo[d]imidazol-2-yl)ethyl)phenyl)acetamide], the inhibition at 10 µM on B1R receptor of the rat was found to be 103%; at human B1R receptor, 96.2%.

With `CN1CCC(N2CCN(C(=O)COCC3CCCCN3S(=O)(=O)c3cccc4cnccc34)CC2)CC1` (stereo not shown) [Example 176, 2-((1-(isoquinolin-5-ylsulfonyl)piperidin-2-yl)methoxy)-1-(4-(1-methylpiperidin-4-yl)piperazin-1-yl)ethanone dihydrochloride], the inhibition at 10 µM at B1R receptor of the rat is 36.5%; on human B1R receptor, -24.8%.
